Measurements reported in patent US20170314074A1, “LPA-ASSOCIATED PROTEIN AND RNA EXPRESSION” (Intermune, Inc., priority 2014, published 2017).

Tested on: normal human lung fibroblasts
Experiment: mRNA expression after LPA induction, Affymetrix Human Gene ST arrays, fibroblasts (Table 4A)
Type: cell-based
Conditions: LPA-induced fibroblasts; 1 μM BMS-986020; average of 3 experiments
Protocol: Changes in gene expression after 3 hours of LPA induction were profiled on Affymetrix Human Gene ST 2.0 microarrays; differentially expressed genes identified by ANOVA with FDR <0.05 and fold-change >1.2. Process networks associated with differentially expressed genes were defined using MetaCore. Changes in secreted protein expression after 24 hours of LPA induction were profiled on an aptamer-based proteomic platform (1129 proteins); differentially expressed proteins identified by t-test.
Total RNA was isolated from normal human lung fibroblasts, human bronchial epithelial cells, and human pulmonary alveolar epithelial cells treated for […] with LPA and/or LPAR1 inhibitor. Each treatment condition was assayed in triplicate. Samples were profiled on Affymetrix Human Gene ST Arrays 1.0 and/or 2.0 after preparation using the Ambion WT Expression Kit according to manufacturers' instructions.
Data normalization and all subsequent analyses were performed in Partek Genomics Suite (Partek, St. Louis, Mo.). Data were normalized using the Robust Multi-array Average (RMA) algorithm. Differentially expressed genes were identified by ANOVA with correction for multiple comparisons with p-value with FDR<0.05. A fold-change cut-off was not strictly applied, although the majority of the differentially expressed genes identified have fold-changes greater than 1.2. Genes were included if they were statistically significant for (1) LPA-induction and (2) response to treatment with an LPAR1 inhibitor.
In Tables 1-5 The differentially expressed secreted proteins set forth in Tables 1, 2, and 5 and the differentially expressed mRNAs set forth in Table 3 and 4 were identified by visual inspection of individual dot-plots.
For the gene and protein expression analysis primary fibroblasts (NHLF product #CC-2512 from Lonza group LTD) and primary epithelial cells (NHBE Product #CC-2540 from Lonza; HPAEpiC Product #3200 from Sciencell (USA, California)) were cultured as recommended by the manufacturer, except they were cultured on collagen coated plates. As part of the induction protocol cells were starved overnight in low (0.2 or 0.1% serum) or no serum (0%), prior to stimulation with LPA.

## Cc1noc(-c2ccc(-c3ccc(C4(C(=O)O)CC4)cc3)cc2)c1NC(=O)O[C@H](C)c1ccccc1 [BMS-986020]
  Effect of 1 μM BMS-986020 relative to induced cells (fold-change), BIRC3 mRNA: −3.33 fold-change
  Effect of 1 μM BMS-986020 relative to induced cells (fold-change), CHIC2 mRNA: −2.40 fold-change
  Effect of 1 μM BMS-986020 relative to induced cells (fold-change), CNST mRNA: −2.32 fold-change
  Effect of 1 μM BMS-986020 relative to induced cells (fold-change), CTGF mRNA: −4.62 fold-change
  Effect of 1 μM BMS-986020 relative to induced cells (fold-change), CYR61 mRNA: −7.53 fold-change
  Effect of 1 μM BMS-986020 relative to induced cells (fold-change), DKK1 mRNA: −6.16 fold-change
  Effect of 1 μM BMS-986020 relative to induced cells (fold-change), DUSP1 mRNA: −2.56 fold-change
  Effect of 1 μM BMS-986020 relative to induced cells (fold-change), EFNB2 mRNA: −2.63 fold-change
  Effect of 1 μM BMS-986020 relative to induced cells (fold-change), GPR37 mRNA: −3.13 fold-change
  Effect of 1 μM BMS-986020 relative to induced cells (fold-change), HAS2 mRNA: −2.89 fold-change
  Effect of 1 μM BMS-986020 relative to induced cells (fold-change), HBEGF mRNA: −5.41 fold-change
  Effect of 1 μM BMS-986020 relative to induced cells (fold-change), IER3 mRNA: −3.28 fold-change
  Effect of 1 μM BMS-986020 relative to induced cells (fold-change), IL6 mRNA: −4.08 fold-change
  Effect of 1 μM BMS-986020 relative to induced cells (fold-change), KPRP mRNA: −3.81 fold-change
  Effect of 1 μM BMS-986020 relative to induced cells (fold-change), KRTAP1-5 mRNA: −6.89 fold-change
  Effect of 1 μM BMS-986020 relative to induced cells (fold-change), KRTAP4-12 mRNA: −3.90 fold-change
  Effect of 1 μM BMS-986020 relative to induced cells (fold-change), LIF mRNA: −5.07 fold-change
  Effect of 1 μM BMS-986020 relative to induced cells (fold-change), MCP-1/CCL2 mRNA: −5.99 fold-change
  Effect of 1 μM BMS-986020 relative to induced cells (fold-change), MIR218-1: −2.82 fold-change
  Effect of 1 μM BMS-986020 relative to induced cells (fold-change), PAI-1 mRNA: −2.43 fold-change
  Effect of 1 μM BMS-986020 relative to induced cells (fold-change), PDCD1LG2 mRNA: −2.51 fold-change
  Effect of 1 μM BMS-986020 relative to induced cells (fold-change), PTX3 mRNA: −2.49 fold-change
  Effect of 1 μM BMS-986020 relative to induced cells (fold-change), SERPINB2 mRNA: −2.64 fold-change
  Effect of 1 μM BMS-986020 relative to induced cells (fold-change), TNFAIP3 mRNA: −3.68 fold-change
  Effect of 1 μM BMS-986020 relative to induced cells (fold-change), TXNIP mRNA: 4.41 fold-change
  Effect of 1 μM BMS-986020 relative to induced cells (fold-change), UGCG mRNA: −2.52 fold-change
  Effect of 1 μM BMS-986020 relative to induced cells (fold-change), VGLL3 mRNA: −2.97 fold-change
